In brackets after ≈: the same amount, converted by molar mass. Like-named read-outs stand apart in the source and are kept apart here.
Tests used:
[1] = system: Methicillin-resistant Staphylococcus aureus (MRSA) (ATCC 33593); experiment: MIC by broth microdilution; format: cell-based; details: 24 h, MRSA ATCC 33593, 37 °C
Protocol: (§1) The minimum inhibitory concentration (MIC) of pure RIF and RIF-CD complexes was determined against both Staphylococcus aureus (NCTC® 10788) and methicillin-resistant Staphylococcus aureus (MRSA) (ATCC® 33593™) using the broth microdilution method. Briefly, inclusion complexes of RIF-CD were separately dissolved in sterile distilled water and diluted with Mueller–Hinton broth (MHB) to obtain a series of culture media containing different RIF concentrations ranging from 50 to 0.78 µg/mL. Solutions and suspensions of pure RIF were prepared by adding the pure RIF in methanol and in sterile distilled water, respectively, and then diluted with MHB to achieve the same concentration as for the RIF-CD inclusion complexes. Culture media in the microplates were inoculated with 100 µL of each bacterial suspension to achieve a final bacterial concentration of 2.0 × 10^5 CFU/mL. Pure MHB inoculated with the different bacterial strains was included as a positive control. The inoculated culture media were then incubated at 37 °C for 24 h. The MIC was determined as the lowest concentration of pure RIF and RIF-CD inclusion complexes where no visible bacterial growth was detected.

[2] = system: Staphylococcus aureus (NCTC 10788); experiment: MIC by broth microdilution; format: cell-based; details: Staphylococcus aureus NCTC 10788, 37 °C
Protocol: as §1

[3] = In vitro release / dissolution study; format: physicochemical; details: all studied release media (pH 1.2, 6.8, 7.4), 37 °C
Protocol: In vitro release profiles for pure RIF and RIF-CD inclusion complexes were evaluated […]. Simulated gastric fluid (pH 1.2), simulated intestinal fluid (pH 6.8), and PBS (pH 7.4) were prepared as the release media in this study and used to mimic biological conditions in the human body. All samples were added into Eppendorf tubes containing 2 mL of the release media and were then placed in an incubator at 37 °C with shaking at 40 rpm. Sampling was carried out at 1, 2, 3, 4, 5, 6, 7, 8, and 24 h by taking 200 µL of each sample, transferring them to HPLC vials containing glass inserts, and replacing the sample with 200 µL of fresh release media. The samples were analyzed using a validated HPLC method.
The HPLC method for RIF quantification was adapted from our previous work. HPLC Agilent 1220 Series (Agilent Technologies, UK Ltd., Stockport, UK) was used to analyze all the samples. Isocratic separation was achieved using a Phenomenex® Luna C18 (ODS1) column (150 × 4.6 mm internal diameter, 5 µm packing) (Phenomenex, Cheshire, UK). The injection volume was 50 µL and the analysis was carried out at room temperature with a flow rate of 1 mL/min. […] RIF was detected by a UV at 334 nm. All chromatograms were analyzed using the Agilent ChemStation® Software B.02.01.

[4] = set-up: method as in earlier work; details: in humans; cited from earlier work
[5] = Saturation solubility of RIF in buffered solutions; format: physicochemical; details: buffered solution
Protocol: Solubility studies were performed to assess RIF solubility in a range of buffers (pH 4.0, pH 7.0, and pH 9.0). For this purpose, an excess amount of RIF was added to 3 mL of adjusted buffered solutions in a glass vial. Suspensions were stirred at 100 rpm in a shaker incubator (Jeio Tech ISF-7100, Medline Scientific, Chalgrove Oxon, UK) at 37 °C for 24 h. Samples were then filtered using 0.2 μm syringe filters (Minisart®, Sartorius Stedim Biotech, Goeltingen, Germany). All samples were diluted appropriately and analyzed using the validated HPLC method described in Section 2.10.
The HPLC method for RIF quantification was adapted from our previous work. HPLC Agilent 1220 Series (Agilent Technologies, UK Ltd., Stockport, UK) was used to analyze all the samples. Isocratic separation was achieved using a Phenomenex® Luna C18 (ODS1) column (150 × 4.6 mm internal diameter, 5 µm packing) (Phenomenex, Cheshire, UK). The injection volume was 50 µL and the analysis was carried out at room temperature with a flow rate of 1 mL/min. The mobile phase was a mixture of 25 mM sodium dihydrogen phosphate buffer (with 1% triethylamine and adjusted using phosphoric acid at pH 6.8) and methanol (ratio 30:70 v/v). RIF was detected by a UV at 334 nm. All chromatograms were analyzed using the Agilent ChemStation® Software B.02.01.

[6] = Phase solubility analysis of RIF with cyclodextrins (binding constant, complexation efficiency); format: physicochemical
Protocol: Phase solubility analysis was carried out similarly to the saturation solubility studies by using a range of concentrations of CDs in buffered solutions at different pH vales. […] Solubility of each drug was determined and plotted in a graph with the nominal concentration of cyclodextrin on the x-axis and the nominal concentration of RIF on the y-axis.
In order to determine the binding strength of CD and RIF, the binding constant (Ks) was calculated based on the phase diagram of solubility studies. […] (1) Ks=[RIF−CD]/[RIF]free·[CD]free CD+RIF↔KsCD−RIF where [RIF − CD], [RIF]free, and [CD]free are concentration of the RIF-CD complexes, free RIF, and free CD, respectively.
[RIF]free can be considered as RIF initial solubility (S0), therefore Equation (2) becomes:(2) Ks=[RIF−CD]/S0·[CD]free
The phase solubility diagram was constructed by plotting the RIF molar concentration on the y-axis and the CD molar concentration on the x-axis. […] (3) Ks=slope/S0·(1−slope)
The complexation efficiency (CE) was determined by using the slope of the phase solubility diagram according to Equation (4). (4) CE=[CD−RIF]/[CD]free=S0·Ks=slope/1−slope
Based on CE determination, the CD molar ratio was calculated using Equation (5). (5) Drug :CD molar ratio=1 : (CE+1)/CE

Compound | CE (complexation efficiency) ([6]; pH 4.0) | Ks (binding constant) ([6]; pH 4.0, RIF-CD 1:1 complex) [M⁻¹] | CE (complexation efficiency) ([6]; pH 7.0) | Ks (binding constant) ([6]; pH 7.0, RIF-CD 1:1 complex) [M⁻¹] | also measured
CO[C@H]1/C=C/O[C@@]2(C)Oc3c(C)c(O)c4c(O)c(c(/C=N/N5CCN(C)CC5)c(O)c4c3C2=O)NC(=O)/C(C)=C\C=C\[C@H](C)[C@H](O)[C@@H](C)[C@@H](O)[C@@H](C)[C@H](OC(C)=O)[C@@H]1C [Pure RIF (solution), Rifampicin] |  |  |  |  | MIC ([1]; Staphylococcus aureus, n = 3, read-out: MIC): 0.78 mg/L (≈ 0.948 µM); MIC ([2]; Staphylococcus aureus, NCTC10788, 24 h, n = 3, read-out: MIC): 0.78 mg/L (≈ 0.948 µM)
CO[C@H]1/C=C/O[C@@]2(C)Oc3c(C)c(O)c4c(O)c(c(/C=N/N5CCN(C)CC5)c(O)c4c3C2=O)NC(=O)/C(C)=C\C=C\[C@H](C)[C@H](O)[C@@H](C)[C@@H](O)[C@@H](C)[C@H](OC(C)=O)[C@@H]1C [Pure RIF (suspension), Rifampicin] |  |  |  |  | MIC ([1]; n = 3): 1.56 mg/L (≈ 1.9 µM); MIC ([2]; 24 h, n = 3): 1.56 mg/L (≈ 1.9 µM)
CO[C@H]1/C=C/O[C@@]2(C)Oc3c(C)c(O)c4c(O)c(c(/C=N/N5CCN(C)CC5)c(O)c4c3C2=O)NC(=O)/C(C)=C\C=C\[C@H](C)[C@H](O)[C@@H](C)[C@@H](O)[C@@H](C)[C@H](OC(C)=O)[C@@H]1C [RIF, Rifampicin] |  |  |  |  | RIF released in 2 h [3]: less than 10%; oral bioavailability [4]: approximately 68%; solubility at 24 h ([5]; aqueous buffer, thermodynamic from solid, buffer pH 7.0, 37 °C): 0.87 mg/mL (≈ 1060 µM); solubility at 24 h ([5]; buffer pH 4.0, 37 °C): 0.31 mg/mL (≈ 377 µM); solubility at 24 h ([5]; buffer pH 9.0, 37 °C): 1.4 mg/mL (≈ 1700 µM)
OC[C@H]1O[C@@H]2O[C@H]3[C@H](O)[C@@H](O)[C@@H](O[C@H]4[C@H](O)[C@@H](O)[C@@H](O[C@H]5[C@H](O)[C@@H](O)[C@@H](O[C@H]6[C@H](O)[C@@H](O)[C@@H](O[C@H]7[C@H](O)[C@@H](O)[C@@H](O[C@H]8[C@H](O)[C@@H](O)[C@@H](O[C@H]1[C@H](O)[C@H]2O)O[C@@H]8CO)O[C@@H]7CO)O[C@@H]6CO)O[C@@H]5CO)O[C@@H]4CO)O[C@@H]3CO [βCD] | 0.09 | 215 | 0.29 | 250 | 
OC[C@H]1O[C@@H]2O[C@H]3[C@H](O)[C@@H](O)[C@@H](O[C@H]4[C@H](O)[C@@H](O)[C@@H](O[C@H]5[C@H](O)[C@@H](O)[C@@H](O[C@H]6[C@H](O)[C@@H](O)[C@@H](O[C@H]7[C@H](O)[C@@H](O)[C@@H](O[C@H]8[C@H](O)[C@@H](O)[C@@H](O[C@H]9[C@H](O)[C@@H](O)[C@@H](O[C@H]1[C@H](O)[C@H]2O)O[C@@H]9CO)O[C@@H]8CO)O[C@@H]7CO)O[C@@H]6CO)O[C@@H]5CO)O[C@@H]4CO)O[C@@H]3CO [γCD] | 0.80 |  | 1.22 | 1284 | 
hydroxypropyl-βCD [HP-βCD] | 0.20 | 541 | 0.92 | 848 | CE (complexation efficiency) ([6]; pH 9.0): 1.12; Ks (binding constant) ([6]; pH 9.0, RIF-CD 1:1 complex): 649 M⁻¹
